One may read the IC50 as the midpoint of a concentration-inhibition curve. Low values mean inhibition by little substance, high ones a need for much substance.

One data set deals with HepG2. The data set is described as follows: Cytotoxicity against human HepG2 cells after 72 hrs by Alamar Blue assay. The conditions noted are these: HepG2, 72 h. In kind it is cell-based.
Data set [1] is described as follows: Cytotoxicity against HEK293 cells assay at 40 uM after 72 hrs by Alamar Blue assay. In kind it is cell-based. The conditions noted are these: human, read-out: INH.
For another data set, the system named is Plasmodium falciparum. The data set is described as follows: Antimalarial activity against chloroquine-sensitive Plasmodium falciparum 3D7 ring-stage infected in human erythrocytes after 48 hrs by [3H]hypoxanthine assay. Format: functional, organism-based.
The subject of another data set is HEK293. Briefly: Cytotoxicity against HEK293 cells after 72 hrs by Alamar Blue assay. In kind it is cell-based. The settings on record: Homo sapiens, HEK293, 72 h. On the technique in general: Alamar Blue is a resazurin reagent that responds to reducing activity.
A short description of data set [2]: Selectivity index, ratio of IC50 for chloroquine-sensitive Plasmodium falciparum 3D7 to IC50 for HEK293 cells.
Data set [3] can be described thus: Selectivity index, ratio of IC50 for chloroquine-sensitive Plasmodium falciparum 3D7 to IC50 for human HepG2 cells.
The nature of data set [4]: Cytotoxicity against human HepG2 cells assay at 40 uM after 72 hrs by Alamar Blue assay. In kind it is cell-based. The settings on record: read-out: INH.

Bounds are passed on as bounds.

On to `COC1C(Br)=CO[C@@]2(C=C1Br)ON=C(C(=O)NCCCOc1c(Br)cc(CC[N+](C)(C)C)cc1Br)[C@@H]2O.O=C([O-])C(F)(F)F` (some centres undefined) [PSAMMAPLYSIN H], for which the IC50 is > 40 µM in the data set on HepG2, 0.41 µM with Plasmodium falciparum and > 40 µM in the data set with HEK293. The cytotoxicity at 72 h, 40 µM in data set [1] was found to be 35%; in data set [4], 33%. Also, the “Ratio IC50” value in data set [2] and in data set [3] was >97 in each case.

Consider `CNCCc1cc(Br)c(OCCCNC(=O)C2=NO[C@@]3(C=C(Br)C(OC)C(Br)=CO3)[C@H]2O)c(Br)c1` (some centres undefined) [PSAMMAPLYSINS F], for which the IC50 stood at 3.7 µM in the data set on HepG2, 1.92 µM in the data set on Plasmodium falciparum and 10.9 µM in the data set on HEK293. Besides, the Ratio IC50 in data set [2] is 5; in data set [3], 2.

As to `COC1C(Br)=CO[C@@]2(C=C1Br)ON=C(C(=O)NCCCOc1c(Br)cc(CCN(C)C(N)=O)cc1Br)[C@@H]2O` (some centres undefined) [PSAMMAPLYSINS G], the concentration for half-maximal inhibition (IC50) worked out at 17.4 µM in the data set with HepG2, 5.22 µM in the data set on Plasmodium falciparum and 18.7 µM in the data set with HEK293. In addition, the “Ratio IC50” value in data set [2] and in data set [3] was 3 in each case.

With `CCN(CC)CCCC(C)Nc1ccnc2cc(Cl)ccc12` (centres undefined) [CHLOROQUINE], the half-maximal inhibitory concentration (IC50) with HepG2 stood at 12.9 µM; in the data set on HEK293 it was 48 µM.

Values taken from ChEMBL document CHEMBL1641471, “Psammaplysin H, a new antimalarial bromotyrosine alkaloid from a marine sponge of the genus Pseudoceratina” (Bioorg Med Chem Lett, 2011).
